Laboratory results as given in patent US12553889B2, “Small molecules targeting the intrinsically disordered structural ensemble of α-synuclein protect against diverse α-synuclein mediated dysfunctions” (The Regents of the University of California, priority 2019, dated 2026).
Entries after “also recorded” stand apart in the source; their conditions may differ.

Experiments:
[1] = molecular target: T1, αSyn (Homo sapiens, UniProt P37840, Q99C); experiment: αSyn FRET (Cy3/Cy5) oligomerization assay; type: biochemical
T1 construct: made in house; host or cells: E. coli BL21(DE3), pET28b
Procedure: For the FRET oligomerization assay, 10 μM each of αSyn-Q-C(position number)Cy3 (donor) and αSyn-Q(position number)C-Cy5 (acceptor) in PBS (pH 7.4) were dispensed into black/clear bottom 384-well plates (Greiner) using a Mantis liquid handler (Formulatrix). The plate was sealed with AbsorbMax film (Sigma-Aldrich) and incubated at 37° C. The FRET between donor and acceptor was measured on a SpectraMax M5 Microplate Reader (Molecular Devices). An excitation wavelength of 525 nm for αSyn-Cy3 (donor), and emission wavelengths of 570 nm and 670 nm for αSyn-Cy3 (donor) and αSyn-Cy5 (acceptor) respectively were used. The plate reader PTM sensitivity is set to medium and assays executed without mixing. The signals are read at 10 minute intervals for 99 hours at 37° C. Efficiency of FRET was calculated as follows: EFRET=IAcceptor/IDonor, in which IAcceptor is acceptor emission intensity, IDonor is donor emission intensity.
• 1. Single point mutation (x to Cys) is introduced to αSyn. • 2. Cy3 and Cy5 are used as FRET probes Brief Procedure: Label αSyn Mutant with Cy3/Cy5 Dyes: • Incubate purified αSyn Q99C with 1 mM TCEP at 4° C. for 3 hours to reduce Cys; • Dissolve Cy3-maleimide or Cy5-maleimide (GE Healthcare) in DMSO; • Add 10× molar excess of dye to αSyn Q99C; • Incubate at 4° C. overnight; • Remove excess dye by HiTrap Desalting column (GE Healthcare); FRET Assay • Mix the following: • αSyn-Q99C-Cy3 5 uM • αSyn-Q99C-Cy5 5 uM
Measure the fluorescence from Cy3 and Cy5 at 37° C. for 99 hours on a plate reader (SpectraMax M5, Molecular Devices).

[2] = molecular target: αSyn (Homo sapiens, UniProt P37840); experiment: αSyn split Gaussia luciferase (GLuc) biochemical oligomerization assay; design: His tag; made in house; host or cells: E. coli BL21(DE3), pET28b; details: 24 hours; for impact on αSyn oligomerization (GLuc complementation): 100 μM compound, 12.5 μM of each tagged synuclein; for impact on αSyn oligomerization relative to other active compounds (GLuc): 100 μM
Procedure: A mixture of purified αSyn fused at its C-terminus with either the N-Terminal or the C-terminal half of Gaussia luciferase was incubated and the formation of oligomers monitored by reconstituted luciferase activity (FIG. 9, GLuc). For comparison, fibrillization of αSyn was measured in parallel samples by measuring the fluorescence of the dye Thioflavin T (ThT) as is widely used in the field (FIG. 9, ThT). […] The αSyn-Split Gluc tags have been used to detect αSyn oligomerization in cell models via transfection and expression of DNA encoding αSyn fused to split Gluc tags, but it has not previously been used in a biochemical assay using purified proteins as shown here.
Five to […] each of αSyn-GLuc1 and μM αSyn-GLuc2, (N-terminal or C-terminal fragment of GLuc fused to the C-terminus of αSyn see Example 6) in a buffer consisting of 1 mM MgCl2, 1 mM ADP, 50 mM Na3PO4, 0.02% NaN3 and 1 mM DTT at pH 7.4, were incubated at 37° C. in a thermal cycler (BioRad DNA Engine PTC-200). In experiments in which fibrillization was also measured, samples were incubated in an air incubator with shaking at 1000 rpm. At various time points (typically 0, 6, 12, and 24 hours), Gaussia luciferase activity was quantified using a BioLux Gaussia Luciferase Assay Kit (NEB) according to the manufacturer's instructions and read on a SpectraMax M5 Microplate Reader (Molecular Devices) with 5 minute delay after the addition of substrate and 3 sec integration time reading each well.
• Mix αSyn-GLuc1 and αSyn-GLuc2 at a final concentration of 10 μM each; • Incubate at 37° C. with shaking at 1000 rpm for 120 hours; • Take aliquot at 0/3/6/12/24/48/72/96/120 hour for analysis by Gaussia luciferase activity assay and ThT assay Methods Gaussia Luciferase Assay (According to BioLux Kit Manual): • 1. Thaw reaction buffer and stabilizer; • 2. Make working solution, for each reaction: • Reaction Buffer 50 μL • BioLux Stabilizer 8 μL • Substrate 0.5 μL • 3. Mix well and wait 5 minutes to use the working solution; • 4. Take out 10 μL GLuc sample and put on white 96-well plates; • 5. Add 50 μL working solution, mix well and wait 3.5 minutes; • 6. Read on the plate reader at 480 nm ThT Assay: • 1. Dilute 1 mM Thioflavin T (M.W. 319 Da) stock in PBS to 25 μM final concentration (1:40 dilution) • 2. Pipet 95 μL of the 25 μM Thioflavin T per well of 384 well plate. • 3. Pipet αSyn fibril up and down to mix, add 5 μL to wells with Thioflavin T • 4. For controls, include 5 μL PBS alone. • 5. Incubate at room temperature for 15 min to 1 hour. • 6. Read plate (excitation 440 nm, emission 482 nm). Method Used to Screen 66 HT-CM-SPR Compounds Using αSyn-GLuc:
Reaction mix is added into 96-well PCR plate containing:
Reaction: • αSyn-GLuc1 12.5 μM • αSyn-GLuc2 12.5 μM • Compound 0/12.5/25/50/75/100 μM in DMSO 0.2% • Negative: DMSO 0.2%: • 37 degree (PCR), no shaking

activity in FRET αSyn oligomerization assay [1] | impact relative to 576755 in FRET αSyn oligomerization assay [1] | Compound | impact on αSyn oligomerization (GLuc complementation) [2] | impact on αSyn oligomerization relative to other active compounds (GLuc) [2]
block αSyn oligomerization | – | Cc1c(-c2csc(NC(C(N)=O)C3CCNCC3)n2)sc2ccccc12 (stereo not shown) [Compound 573437, 2-((4-(3-methylbenzo[b]thiophen-2-yl)thiazol-2-yl)amino)-2-(piperidin-4-yl)acetamide] | impair αSyn oligomerization | –
block αSyn oligomerization | – | CNC(=O)c1cc(O)ccc1N [Compound 576755, 2-amino-5-hydroxy-N-methylbenzamide] | impair αSyn oligomerization; also recorded: demonstrated inhibition of αSyn oligomerization | –
also active | less impact than 576755 | CNC(=O)c1cc(O)ccc1N(C)C [Compound 581823, 2-dimethylamino-5-hydroxy-N-methylbenzamide] | demonstrated inhibition of αSyn oligomerization | less impact than 576755
also active | – | CNC(=O)c1cc(O)ccc1NC [Compound 581858, 2-methylamino-5-hydroxy-N-methylbenzamide] | demonstrated inhibition of αSyn oligomerization | more impact on αSyn oligomerization than 576755 and 581823
block αSyn oligomerization | – | CNC(=O)CN(C(=O)Cc1noc2ccccc12)C(C)c1ccc(Cl)cc1 (stereo not shown) [Compound 582032, 2-(benzo[d]isoxazol-3-yl)-N-(1-(4-chlorophenyl)ethyl)-N-(2-(methylamino)-2-oxoethyl)acetamide] | impair αSyn oligomerization | –
also active | – | CNC(=O)c1cc(O)ccc1O [Compound 583854, 2,5-dihydroxy-N-methylbenzamide] | demonstrated inhibition of αSyn oligomerization | more impact on αSyn oligomerization than 576755 and 581823
